Measured values: patent US20120122727A1, “IN VITRO METHOD FOR PREDICTING WHETHER A COMPOUND IS GENOTOXIC IN VIVO” (priority 2009, published 2012)
Read-outs that look alike come from different tables or passages of the source.

Test system: primary mouse hepatocytes
Assay: Gene expression in primary mouse hepatocytes, GTX vs non-GTX (four-gene classifier, 24 h)
Method: Hepatocyte cells were incubated and exposed to a compound for 24 h before being harvested for RNA isolation.
The results of the gene expression analysis may then be fed into a statistical software package such as R, Splus, or Microsoft Excel. […] If none or only one of these criteria were met, no point was scored.
For each of the four genes mentioned in the table (1700007K13RIK, GAS2L3, SPC25, DDIT4L), a statistical comparison was made between the normalized expression data for these genes. […] If none or only one of these criteria were met, no point was scored.
For each compound, the sum of the scores for four genes is taken. If this score is 0, a compound can be believed not to be genotoxic. If this score is 1, 2, 3 or 4, a compound is genotoxic.
If none or only one of these criteria were met, no point was scored.

[1] = 24 h exposure, average of four replicates
[2] = log 2 ratio, 24 h exposure, concentration per Table 4
[3] = sum of scores for four genes, 0 = not genotoxic, 1, 2, 3 or 4 = genotoxic

Row | SMILES | score 1700007K13RIK [1] | score DDIT4L [1] | score GAS2L3 [1] | score SPC25 [1] | Ratios of gene expression treated/untreated 1700007K13RIK [2] | Ratios of gene expression treated/untreated DDIT4L [2] | Ratios of gene expression treated/untreated GAS2L3 [2] | Ratios of gene expression treated/untreated SPC25 [2] | Total score [3] | Ratios of gene expression treated/untreated 1700007K13RIK | Ratios of gene expression treated/untreated DDIT4L | Ratios of gene expression treated/untreated GAS2L3 | Ratios of gene expression treated/untreated SPC25 | Total score | score 1700007K13RIK | score DDIT4L | score GAS2L3 | score SPC25
1 | CC(C)(c1ccc(O)cc1)c1ccc(O)cc1 [BPA, Bisphenol A] | 0 | 0 | 0 | 0 | −0.0382 | 0.0293 | −0.06 | −0.0457 | 0 | – | – | – | – | – | – | – | – | –
2 | ClC(Cl)(Cl)Cl [CCI4, Carbon tetrachloride] | 0 | 0 | 0 | 0 | 0.3906 | 0.4894 | −0.3188 | 0.3544 | 0 | – | – | – | – | – | – | – | – | –
3 | O=C(O)Cc1ccccc1Nc1c(Cl)cccc1Cl [DF, Diclofenac] | 0 | 0 | 0 | 0 | – | – | – | – | 0 | 0.09622 | 0.1268 | −0.2839 | 0.4079 | – | – | – | – | –
4 | CCC[CH2][Sn]([CH2]CCC)([CH2]CCC)[O][Sn]([CH2]CCC)([CH2]CCC)[CH2]CCC [TBTO, Bis(tri-n-butyltin)oxide] | 0 | 0 | 0 | 0 | 0.09131 | 0.319 | −0.0161 | 0.2186 | 0 | – | – | – | – | – | – | – | – | –
5 | Clc1cc2c(cc1Cl)Oc1cc(Cl)c(Cl)cc1O2 [TCDD, 2,3,7,8-Tetrachlorodibenzodioxin] | 0 | 0 | 0 | 0 | 0.0752 | 0.2646 | 0.22 | 0.01802 | 0 | – | – | – | – | – | – | – | – | –
6 | CCCCCCCCCCCCCC(=O)O[C@@H]1[C@@H](C)[C@@]2(O)[C@@H](C=C(CO)C[C@]3(O)C(=O)C(C)=C[C@@H]23)[C@@H]2C(C)(C)[C@]12OC(C)=O [TPA, Tetradecanoylphorbol Acetate] | 0 | 0 | 0 | 0 | −0.0617 | 0.05594 | 0.01747 | 0.03809 | 0 | – | – | – | – | – | – | – | – | –
7 | Cc1cccc(Nc2cc(Cl)nc(SCC(=O)O)n2)c1C [Wyeth, Wy-14,643] | 0 | 0 | 0 | 0 | −0.3527 | −0.1013 | −0.7113 | −0.0756 | 0 | – | – | – | – | – | – | – | – | –
8 | OC[C@@H](O)[C@@H](O)[C@H](O)[C@H](O)CO [dMan, D-Mannitol] | 0 | 0 | 0 | 0 | 0.02382 | 0.03421 | −0.2175 | −0.0363 | 0 | – | – | – | – | – | – | – | – | –
9 | COc1ccc(C)cc1N [pCres, Para-Cresidine] | – | – | – | – | – | – | – | – | – | 0.2086 | 1.066 | 1.562 | 1.331 | 3 | 0 | 1 | 1 | 1
